Article PMC6731142 (Cell, 2019)
Bridge positions count the residues as written; N and C are the ends. Ends that are not written are not given here. * marks the point of attachment. Biotin = O=C1N[C@H]2[C@H](CS[C@H]2CCCCC(=O)*)N1

How the values were obtained:
[1] = test system: rat snake TRPA1 (rsTRPA1); settings: ref Banzawa et al., 2014; McNamara et al., 2007; cited from earlier work
hTRPA1 [2] = target: T1, hTRPA1 (Homo sapiens, UniProt O75762); type: cell-based; settings: human TRPA1-transfected HEK cells, whole-cell; mean ± SEM; p < 0.05 unpaired two-tailed t-test
human TRPA1 = type: cell-based; settings: WaTx 1 μM, whole-cell, n = 3–9 cells/construct
[3] = test system: trigeminal sensory neurons; assay: Ca2+ imaging of cultured mouse trigeminal sensory neurons; type: cell-based
hTRPA1 [4] = target: T1, hTRPA1; type: binding; settings: wild-type hTRPA1-transfected HEK293 membranes
rsTRPA1 = type: binding, Texas rat snake (Elaphe obsoleta lindheimeri); settings: gain-of-function mutant A627P
hTRPA1 [5] = target: T1, hTRPA1; assay: Single-channel cell-attached and excised-patch recordings of TRPA1 in HEK cells; type: cell-based; settings: for Effect on divalent over monovalent cation selectivity: excised patches, AITC 50 μM, n = 3–7 patches/condition; for Effect on divalent over monovalent cation selectivity / Duration of evoked channel openings / Average latency to first channel opening: WaTx 100 nM; for Duration of evoked channel openings / Average latency to first channel opening: inside-out patches, AITC 10 μM; for Duration of evoked channel openings: Vh = −40 mV, n = 6–8 patches/treatment; for Average latency to first channel opening: n = 13–14 patches/treatment
[6] = test system: cultured rat trigeminal neurons; assay: CGRP release ELISA from cultured trigeminal neurons; type: cell-based; settings: WaTx 10 μM
mouse hindpaw [7] = assay: Thermal; type: in vivo; settings: for Mechanical hypersensitivity in capsaicin-ablated animals: intrathecally capsaicin ablated mice, n = 6–8 mice/treatment; for Hypersensitivity to thermal and mechanical stimuli: wild-type mice, intraplantar injection
[8] = test system: rat snake TRPA1 (rsTRPA1); assay: Whole-cell patch-clamp recordings of rat snake TRPA1 in transfected HEK cells; type: cell-based, Texas rat snake (Elaphe obsoleta lindheimeri)
mouse hindpaw [9] = settings: for Acute nocifensive behavior in capsaicin-ablated animals: intrathecally capsaicin ablated mice
mouse hindpaw [10] = assay: Neurogenic inflammation: paw edema and Evan's Blue Dye extravasation; type: in vivo; settings: intrathecally capsaicin ablated mice; AITC 0.75% v/v
[11] = target: human TRPA1, full-length wild type (human, UniProt O75762 1-1119); assay: BLI
Chain of human TRPA1, full-length wild type (O75762 whole entry): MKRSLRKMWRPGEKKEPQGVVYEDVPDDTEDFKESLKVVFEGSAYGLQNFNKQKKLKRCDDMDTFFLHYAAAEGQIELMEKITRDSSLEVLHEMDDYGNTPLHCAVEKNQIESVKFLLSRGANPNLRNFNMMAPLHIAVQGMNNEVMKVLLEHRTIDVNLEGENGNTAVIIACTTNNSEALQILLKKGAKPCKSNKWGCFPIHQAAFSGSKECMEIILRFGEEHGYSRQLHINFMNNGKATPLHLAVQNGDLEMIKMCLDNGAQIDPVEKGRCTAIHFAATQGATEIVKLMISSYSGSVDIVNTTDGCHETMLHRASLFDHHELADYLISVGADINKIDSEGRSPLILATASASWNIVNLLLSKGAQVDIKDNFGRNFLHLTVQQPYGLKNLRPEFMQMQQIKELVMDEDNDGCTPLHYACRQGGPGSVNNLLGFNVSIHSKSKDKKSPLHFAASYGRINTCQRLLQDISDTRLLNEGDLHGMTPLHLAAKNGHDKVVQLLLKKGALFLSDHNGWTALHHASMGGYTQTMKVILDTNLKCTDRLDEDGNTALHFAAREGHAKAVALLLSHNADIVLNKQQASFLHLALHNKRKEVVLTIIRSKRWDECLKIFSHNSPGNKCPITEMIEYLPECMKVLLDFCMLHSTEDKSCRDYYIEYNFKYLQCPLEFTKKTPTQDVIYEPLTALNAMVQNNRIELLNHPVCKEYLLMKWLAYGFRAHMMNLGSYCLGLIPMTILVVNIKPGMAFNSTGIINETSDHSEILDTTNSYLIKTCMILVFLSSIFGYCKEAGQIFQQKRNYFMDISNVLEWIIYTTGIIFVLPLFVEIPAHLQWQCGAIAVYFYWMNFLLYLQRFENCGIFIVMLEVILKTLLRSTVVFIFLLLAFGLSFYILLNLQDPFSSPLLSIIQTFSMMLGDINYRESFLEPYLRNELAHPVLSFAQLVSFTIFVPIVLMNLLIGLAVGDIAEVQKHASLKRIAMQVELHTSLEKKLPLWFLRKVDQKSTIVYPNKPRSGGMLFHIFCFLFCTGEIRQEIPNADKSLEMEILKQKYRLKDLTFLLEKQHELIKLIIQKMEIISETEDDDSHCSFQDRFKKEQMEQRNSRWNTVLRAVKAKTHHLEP

T1 sequence (O75762 whole entry): as above

Molecule: CC(C)c1ccc(NC(=O)Cn2cnc3c2c(=O)n(C)c(=O)n3C)cc1 [HC 030031]
- Inhibitor effectiveness against rsTRPA1 [1]: effective

Molecule: CCC(=N\O)/C(C)=C/c1ccc(F)cc1 [A 967079]
- Inhibitor effectiveness against rsTRPA1 [1]: ineffective

Molecule: WaTx (Biotin-GSGSASPQQAKYCYEQCNVNKVPFDQCYQMCSPLERS; disulfide 13-31, 17-27; not fully specified)
- τoff (reversal of membrane currents upon washout) (hTRPA1 [2]): 4.6 ± 1.2 s
- Toxin sensitivity of hTRPA1 mutants P622A, M634L, T646P (human TRPA1): abrogated toxin sensitivity
- Effect on neurons from TRPA1-deficient animals ([3]; WaTx 5 μM, TRPA1−/− mouse trigeminal neuron cultures): no effect
- Selectivity of neuron excitation, wild-type mice ([3]; saturating dose 5μM WaTx, AITC 50μM): excited only the cohort sensitive to a selective dose of AITC
- Binding of hTRPA1 membranes (hTRPA1 [4]): Robust binding
- Binding of rsTRPA1 A627P membranes (rsTRPA1): did display binding
- Activation of channels in cell-attached mode (hTRPA1 [5]; cell-attached HEK cell patches, n = 12): WaTx-evoked responses in the on-cell patch configuration
- Activation of channels in excised patches (hTRPA1 [5]; excised outside-out / inside-out patches, bath application): activity was observed in either configuration
- Effect on divalent over monovalent cation selectivity (hTRPA1 [5]): largely abolished
- Duration of evoked channel openings (hTRPA1 [5]): ≤ 20 ms
- Average latency to first channel opening (hTRPA1 [5]): indistinguishable from that of basal, spontaneous events
- CGRP release, raised extracellular Ca2+ ([6]; 20mM extracellular Ca2+ (10-fold)): able to promote CGRP release
- Mechanical hypersensitivity in capsaicin-ablated animals (mouse hindpaw [7]): failed to exhibit any signs of mechanical hypersensitivity
- Hypersensitivity to thermal and mechanical stimuli (mouse hindpaw [7]): substantial and long-lasting hypersensitivity
- Toxin sensitivity of rsTRPA1 A627P ([8]; WaTx 5 μM, whole-cell): sufficient to confer toxin sensitivity
- Sensitivity of rat snake TRPA1 to toxin ([8]; whole-cell patch clamp, n = 4–12 HEK cells/condition): insensitive
- Nocifensive (pain-related) behavior (mouse hindpaw [9]; 20 μL intraplantar to hindpaw, wild-type mice, scored 20 min): vigorous, dose-dependent nocifensive (pain-related) behavior
- Nocifensive and c-Fos responses in TRPA1-deficient mice (mouse hindpaw [9]; TRPA1−/− mice): not observed
- c-Fos immunoreactivity in superficial laminae of spinal cord dorsal horn (mouse hindpaw [9]; after hindpaw injection, wild-type mice, n = 22–39 sections/group): induction of c-Fos immunoreactivity
- Acute nocifensive behavior in capsaicin-ablated animals (mouse hindpaw [9]): lacked acute nocifensive behavior

Molecule: C=CCN=C=S [AITC, allyl isothiocyanate, reference compound]
- τoff (reversal of membrane currents upon washout) (hTRPA1 [2]): 27 ± 5 s
- Effect on divalent over monovalent cation selectivity (hTRPA1 [5]): small but significant increase in divalent cation selectivity
- Duration of evoked channel openings (hTRPA1 [5]): ≤ 5 ms
- Average latency to first channel opening (hTRPA1 [5]): dramatically shortened
- Paw swelling in capsaicin-ablated animals (mouse hindpaw [10]): produced swelling
- CGRP release, physiological extracellular Ca2+ ([6]; 2mM extracellular Ca2+, AITC 100 μM, 5 min at RT): promoted robust CGRP release
- Mechanical hypersensitivity in capsaicin-ablated animals (mouse hindpaw [7]): developed mechanical hypersensitivity (albeit with a delayed onset)
- Hypersensitivity to thermal and mechanical stimuli (mouse hindpaw [7]): substantial and long-lasting hypersensitivity
- Acute nocifensive behavior in capsaicin-ablated animals (mouse hindpaw [9]): not acute nocifensive behavior

B1: Biotin-GSGS-WaTx (N-terminal biotinylated Wasabi Receptor Toxin) (peptide)
peptide: GSGSASPQQAKYCYEQCNVNKVPFDQCYQMCSPLERS
modifications: biotin on the N-terminus; directed disulfide bonds C9-C27 and C13-C23 (WaTx numbering)
- Kd [11]: 0.33 pM
- koff [11]: 7.13e-06 s⁻¹
